The values below come from patent publication US20110306668A1 (NATIONAL TSING HUA UNIVERSITY, priority 2010, published 2011).

Holding throughout (type): cell-based
Data set [1] has as its system A549 (Human type II epithelial cell line). The data set can be described thus: Cytotoxicity by MTT assay, A549 cells. The note with it: 48 h, incubation of 2 days, read-out: IC50 values, inhibition of growth of cells. The method, then: (§1) The cell lines were used in the present invention, including C26 (solid murine colon carcinoma), A549 (Human type II epithelial cell line, from American Type Culture Collection, Manassas, Va.), MCF7 (solid human estrogen receptor positive breast carcinoma) and Tramp C1 (transgenic adenocarcinoma of the mouse prostate).
(§2) 10 μL combinatorial compound was added into the well of microtiterplate planted with 100 μL of abovementioned cell lines in a concentration of 30000 cells/mL. After an incubation of 2 days, the supernatants were washed, followed by adding MTT reagents. After 4 hrs, absorbance at 580 nm was recorded according to the usual protocol.

For data set [2], the system named is Tramp C1 (transgenic adenocarcinoma of the mouse prostate). The data set can be described thus: Cytotoxicity by MTT assay, TRAMP C-1 cells. As to conditions: for IC50: Mus musculus, TRAMP-C1, 48 h, TRAMP C-1 cells, MTT, incubation of 2 days, read-out: IC50 values, inhibition of growth of cells. The method, then:
as §1, §2

Data set [3] deals with C26 (solid murine colon carcinoma). Briefly: Cytotoxicity by MTT assay, C26 cells. As to conditions: Mus musculus, 48 h, incubation of 2 days, read-out: IC50 values, inhibition of growth of cells. The method, then: as §1, §2
In general terms: Formazan colour is commonly taken as a measure of viable cells.

Data set [4] deals with MCF7 (solid human estrogen receptor positive breast carcinoma). The data set can be described thus: Cytotoxicity by MTT assay, MCF7 cells. As to conditions: 48 h, incubation of 2 days, read-out: IC50 values, inhibition of growth of cells. The method, then:
as §1, §2

On to `O=C(O)CCC(=O)c1ccc(-c2ccccc2)cc1` [Fenbufen, 4-(biphenyl-4-yl)-4-oxobutanoic acid, reference compound], for which the IC50 in data set [1], in data set [2] and in data set [3] was above 100 µM throughout.
For the molecule `Cc1ccc(C)c(OCCCC(C)(C)C(=O)NCCCCNC(=O)CCC(=O)c2ccc(-c3ccccc3)cc2)c1` [compound 12, N-(4-(4-(biphenyl-4-yl)-4-oxobutanamido)butyl)-5-(2,5-dimethylphenoxy)-2,2-dimethylpentanamide], the IC50 (in general, the concentration that gives 50% inhibition) is 9 µM in data set [1], 2 µM in data set [4], 21 µM in data set [2] and 15 µM in data set [3].
Regarding `CCCCC(CC)C(=O)NCCCCNC(=O)CCC(=O)c1ccc(-c2ccccc2)cc1` (stereo not shown) [compound 13, N-(4-(4-(biphenyl-4-yl)-4-oxobutanamido)butyl)-2-ethylhexanamide], the IC50 in data set [1] was 17 µM; in data set [4] it was below 1 µM; in data set [2] it was 18 µM; in data set [3], 15 µM.
For `C=C(CC)C(=O)c1ccc(OCC(=O)NCCCCNC(=O)CCC(=O)c2ccc(-c3ccccc3)cc2)c(Cl)c1Cl` [compound 14, 4-(biphenyl-4-yl)-N-(4-(2-(2,3-dichloro-4-(2-methylenebutanoyl)phenoxy)acetamido)butyl)-4-oxobutanamide], the IC50 in data set [1] was 19 µM; in data set [4], 5 µM; in data set [2], above 100 µM; in data set [3], 35 µM. The “cytotoxicity against Tramp C-1 cell” value in data set [2] (Tramp C-1 cell, result in words) is reported as “void of cytotoxicity”.
